Laboratory results taken from PMC12040169 (PLOS Biology, 2025).

Assay: in vitro
Conditions: human, hela cells, % viability
For `Cc1cc2cc(CCNC(=O)C(=O)c3c[nH]c4ccccc34)c(O)nc2cc1C` [CBK287511], the viability at 28.5 h, 10 µM was 89.5%.
`O=C(CSc1ccc2nnc(-c3ccccc3)n2n1)NCc1ccco1` [CBK287514] gave a viability at 28.5 h, 10 µM of 95.6%.
With `O=C(CSc1ccc2nnc(-c3ccccc3)n2n1)NCC1CCCO1` (centres unmarked) [CBK287515] the viability at 28.5 h, 10 µM was 96.6%.
`Cc1csc(NC(=O)CSc2ccc3nnc(-c4ccccc4)n3n2)n1` [CBK287517] showed a viability at 28.5 h, 10 µM of 105%.
Work on `Cc1cc(NC(=O)CSc2ccc3nnc(-c4ccccc4)n3n2)no1` [CBK287518] yielded a viability at 28.5 h, 10 µM of 94.8%.
`O=C(CSc1ccc2nnc(-c3ccc(F)cc3)n2n1)N1CCCC1` [CBK287519] showed a viability at 28.5 h, 10 µM of 85.3%.
`O=C(CSc1ccc2nnc(-c3ccc(F)cc3)n2n1)N1CCCCC1` [CBK287520] gave a viability at 28.5 h, 10 µM of 98.4%.
With `O=C(CSc1ccc2nnc(-c3ccc(F)cc3)n2n1)N1CCOCC1` [CBK287521] the viability at 28.5 h, 10 µM was 96.9%.
For `O=C(CSc1ccc2nnc(-c3cccc(F)c3)n2n1)Nc1nccs1` [CBK287522], the viability at 28.5 h, 10 µM was 85.8%.
`CCC(Sc1ccc2nnc(-c3ccc(C)cc3)n2n1)C(=O)O` (centres unmarked) [CBK287524] gave a viability at 28.5 h, 10 µM of 104%.
Work on `COc1ccc(-c2nnc3ccc(SC(C)C)nn23)cc1OC` [CBK287526] yielded a viability at 28.5 h, 10 µM of 101%.
Work on `COc1ccc(-c2nnc3ccc(SCC(=O)N4CCCC4)nn23)cc1OC` [CBK287527] yielded a viability at 28.5 h, 10 µM of 85.9%.
`COc1ccc(-c2nnc3ccc(SCc4ccccn4)nn23)cc1OC` [CBK287528] gave a viability at 28.5 h, 10 µM of 97.4%.
With `O=C(Cn1cnc2c(cnn2-c2ccccc2)c1=O)NCc1ccco1` [CBK287531] the viability at 28.5 h, 10 µM was 101%.
For `Cc1ccc(-n2ncc3c(=O)n(CC(=O)Nc4cccc(C)c4)cnc32)cc1` [CBK287533], the viability at 28.5 h, 10 µM was 103%.
`Cc1ccc(-n2ncc3c(=O)n(CC(=O)Nc4ccc(C)cc4C)cnc32)cc1` [CBK287535] showed a viability at 28.5 h, 10 µM of 83.4%.
Compound `O=C(Cn1cnc2c(cnn2-c2ccc(F)cc2)c1=O)Nc1ccc(F)cc1F` [CBK287537] has a viability at 28.5 h, 10 µM of 89.3%.
Compound `O=C(Cn1cnc2c(cnn2-c2ccc(F)cc2)c1=O)NCc1ccccc1` [CBK287538] has a viability at 28.5 h, 10 µM of 93.1%.
In the case of `NC(=O)c1nc(-c2ccccc2)nc2c1[nH]c(=O)n2-c1cccc(Cl)c1` [CBK287544], the viability at 28.5 h, 10 µM is reported as 104%.
`NC(=O)c1nc(-c2ccco2)nc2c1[nH]c(=O)n2-c1ccc(Cl)cc1` [CBK287545] showed a viability at 28.5 h, 10 µM of 91.2%.
`COc1ccc(-n2c(=O)[nH]cc(C(=O)Nc3cc(C)ccc3OC)c2=O)cc1` [CBK287548] showed a viability at 28.5 h, 10 µM of 107%.
`COc1ccc(OC)c(NC(=O)c2c[nH]c(=O)n(-c3ccc(F)cc3)c2=O)c1` [CBK287552] gave a viability at 28.5 h, 10 µM of 99%.
`O=C(c1c[nH]c(=O)n(-c2ccc(F)cc2)c1=O)N1CCc2ccccc21` [CBK287554] gave a viability at 28.5 h, 10 µM of 101%.
Compound `COc1ccc(-n2c(=O)[nH]cc(C(=O)N3CCc4ccccc43)c2=O)cc1OC` [CBK287555] has a viability at 28.5 h, 10 µM of 105%.
For `Cc1nc2c(ccc3nc(NC(=O)c4ccccc4)sc32)s1` [CBK287560], the viability at 28.5 h, 10 µM was 91.7%.
Compound `O=C(Nc1nc(-c2ccncc2)cs1)c1sc2ccccc2c1Cl` [CBK287562] has a viability at 28.5 h, 10 µM of 92.1%.
In the case of `COc1ccc(C(=O)Nc2nc(-c3nc4ccccc4s3)cs2)cc1` [CBK287563], the viability at 28.5 h, 10 µM is reported as 102%.
Work on `O=C(Nc1nc(-c2cccnc2)cs1)c1cccc(N2C(=O)CCC2=O)c1` [CBK287564] yielded a viability at 28.5 h, 10 µM of 108%.
In the case of `CC1(C)CC(=O)c2sc(NC(=O)c3cccc(N4C(=O)CCC4=O)c3)nc2C1` [CBK287565], the viability at 28.5 h, 10 µM is reported as 111%.
With `NC(=O)c1c(NC(=O)c2nc3ccccc3s2)sc2c1CCCCC2` [CBK287566] the viability at 28.5 h, 10 µM was 96.5%.
`CSc1nc2ccc3nc(NC(C)=O)sc3c2s1` [CBK287567] showed a viability at 28.5 h, 10 µM of 106%.
Compound `CC(=O)Nc1ccccc1-c1nc2ccccc2o1` [CBK287568] has a viability at 28.5 h, 10 µM of 100%.
`O=C(Nc1nccs1)c1cc(=O)c2ccccc2o1` [CBK287570] showed a viability at 28.5 h, 10 µM of 105%.
In the case of `COc1ccc2nc(NC(=O)c3ccc4c(c3)OCCO4)sc2c1` [CBK287572], the viability at 28.5 h, 10 µM is reported as 103%.
Work on `Cc1cc(NC(=O)c2ccc(OC(C)C)cc2)no1` [CBK287575] yielded a viability at 28.5 h, 10 µM of 94.4%.
In the case of `Cc1cc(C)cc(NC(=O)CSc2ncccn2)c1` [CBK287577], the viability at 28.5 h, 10 µM is reported as 97.8%.
Work on `COc1cc(C)ccc1S(=O)(=O)n1cnc2cc(C)c(C)cc21` [CBK287580] yielded a viability at 28.5 h, 10 µM of 61.3%.
Compound `C=C(C)Cn1c(-c2ccc(N)cc2)nc2ccccc21` [CBK287581] has a viability at 28.5 h, 10 µM of 89.2%.
With `N#Cc1c(NC(=O)c2cccnc2)sc2c1CCCCC2` [CBK287584] the viability at 28.5 h, 10 µM was 98.6%.
For `O=C(CC1Sc2ccccc2NC1=O)Nc1ccc(C(F)(F)F)cc1` (centres unmarked) [CBK287585], the viability at 28.5 h, 10 µM was 88.6%.
With `COc1ccc(C(=O)Nc2nc(-c3ccc4c(c3)OCCO4)cs2)cc1OC` [CBK287588] the viability at 28.5 h, 10 µM was 92.5%.
`COc1cccc(-c2nnc(NC(=O)c3ccc4c(c3)OCCO4)o2)c1` [CBK287591] gave a viability at 28.5 h, 10 µM of 108%.
In the case of `CC(C)C(=O)Nc1nnc(-c2ccc(Cl)cc2)o1` [CBK287593], the viability at 28.5 h, 10 µM is reported as 94%.
Work on `O=C(Nc1nnc(-c2ccccc2)o1)c1nc2ccccc2s1` [CBK287595] yielded a viability at 28.5 h, 10 µM of 91.2%.
For `O=C(Nc1nnc(-c2ccccc2)o1)C1COc2ccccc2O1` (centres unmarked) [CBK287596], the viability at 28.5 h, 10 µM was 103%.
In the case of `O=C(Cc1ccccc1)Nc1nnc(-c2ccccc2)o1` [CBK287597], the viability at 28.5 h, 10 µM is reported as 95.4%.
With `O=C(Nc1nnc(-c2cccs2)o1)c1ccc(Cl)cc1` [CBK287600] the viability at 28.5 h, 10 µM was 96.4%.
With `Cc1ccc(Cn2ncc3c(N4CCCC4)ncnc32)cc1` [CBK287601] the viability at 28.5 h, 10 µM was 72.5%.
With `CC(=O)Nc1nc2ccc(S(=O)(=O)N3CCCC3)cc2s1` [CBK287604] the viability at 28.5 h, 10 µM was 98.8%.
In the case of `CCn1c(=N)c(C(=O)NCCOC)cc2c(=O)n3ccccc3nc21` [CBK287605], the viability at 28.5 h, 10 µM is reported as 89.5%.
`CCCSc1nc2c(c(=O)[nH]1)C(c1ccncc1)C1=C(CCCC1=O)N2` (centres unmarked) [CBK287606] showed a viability at 28.5 h, 10 µM of 106%.
For `Cn1c(SCC(=O)NCCCN2CCOCC2)nc2ccccc2c1=O` [CBK287607], the viability at 28.5 h, 10 µM was 109%.
`Nc1ccc(C(=O)Nc2nc3ccccc3s2)cc1` [CBK287608] showed a viability at 28.5 h, 10 µM of 95.9%.
For `Cc1c(C(=O)O)sc2nc(SCC(=O)NCc3ccccc3)[nH]c(=O)c12` [CBK287609], the viability at 28.5 h, 10 µM was 94.2%.
With `Oc1c(C(c2ccccc2)N2CCc3ccccc3C2)sc2ncnn12` (centres unmarked) [CBK287612] the viability at 28.5 h, 10 µM was 99.9%.
Work on `CCSc1nc(N)c(NC(=O)c2ccco2)c(=O)[nH]1` [CBK287613] yielded a viability at 28.5 h, 10 µM of 92.4%.
`COc1ccc(C(=O)Nc2nc3c(OC)ccc(C)c3s2)cc1` [CBK287615] gave a viability at 28.5 h, 10 µM of 110%.
In the case of `CCC(=O)Nc1nc2c(OC)ccc(C)c2s1` [CBK287616], the viability at 28.5 h, 10 µM is reported as 110%.
`CC(=O)Nc1nc2cc3c(cc2s1)OCCO3` [CBK287618] gave a viability at 28.5 h, 10 µM of 96.2%.
Work on `O=C(Nc1nc2c(Br)cccc2s1)c1nc2ccccc2s1` [CBK287619] yielded a viability at 28.5 h, 10 µM of 92.2%.
For `Cc1cc(NC(=O)CN2CC(C)CC(C)C2)nc2c1c(=O)oc1ccccc12` (centres unmarked) [CBK287620], the viability at 28.5 h, 10 µM was 108%.
For `O=C(CSc1ccc2nnc(-c3cccnc3)n2n1)c1ccccc1` [CBK287624], the viability at 28.5 h, 10 µM was 100%.
Work on `c1ccc(CSc2ccc3nnc(-c4ccncc4)n3n2)cc1` [CBK287625] yielded a viability at 28.5 h, 10 µM of 94.4%.
Work on `NC(=O)CSc1nnc(NC(=O)c2ccccc2Cl)s1` [CBK287629] yielded a viability at 28.5 h, 10 µM of 89.9%.
With `Cc1ccc(S(=O)(=O)NCCc2cn3ccc(C)cc3n2)cc1` [CBK287630] the viability at 28.5 h, 10 µM was 103%.
